Source: ChEMBL document CHEMBL1201862, “PubChem BioAssay data set” (2004)
The source made the active and inactive calls.

Columns and labels:
[1] = molecular target: T1, Oxysterols receptor LXR-beta (Homo sapiens, UniProt P55055); type: functional, cell-based;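 note: Cell-based luminescence dose-response assay of agonist activity at LXR, run as a confirmatory counterscreen to a daf-12 agonist screen; HEK293 cells with Gal4-LXR fusion and GAL4-driven luciferase reporter; agonist potency from rising luciferase signal of a Gal4-LXR reporter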
T1 sequence (P55055 whole entry): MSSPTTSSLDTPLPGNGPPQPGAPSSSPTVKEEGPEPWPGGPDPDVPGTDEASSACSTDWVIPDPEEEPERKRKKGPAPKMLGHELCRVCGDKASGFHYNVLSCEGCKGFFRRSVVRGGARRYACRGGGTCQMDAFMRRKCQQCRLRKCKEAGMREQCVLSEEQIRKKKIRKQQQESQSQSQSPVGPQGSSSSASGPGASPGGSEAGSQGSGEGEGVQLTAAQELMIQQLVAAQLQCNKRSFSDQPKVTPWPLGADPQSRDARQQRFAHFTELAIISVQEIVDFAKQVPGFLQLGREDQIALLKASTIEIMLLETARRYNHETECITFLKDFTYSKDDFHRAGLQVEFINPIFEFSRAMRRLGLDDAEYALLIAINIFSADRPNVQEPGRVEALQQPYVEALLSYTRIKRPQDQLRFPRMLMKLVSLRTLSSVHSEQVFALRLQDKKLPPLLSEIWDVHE

cells [2] = test: cells
[3] = MC4R antagonists, dose response, counter-screen for LGR2 antagonist project, cell-based, plate reader, cherry pick (AID 743444); type: functional;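 note: transfected HEK 293 cells stimulated with alpha-MSH peptide; potency of inhibitors of the alpha-MSH evoked signal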
[4] = LGR2 antagonists, dose response, cell-based, HEK293, CRE-luciferase reporter, cherry pick, set 2 (AID 743343); type: functional;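 note: transfected cells were stimulated with diluted bursicon conditioned medium after compound addition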
[5] = HepG2 cell cytotoxicity, dose response, cytotoxicity control, plate reader, cherry-pick, antagonist series (AID 743416); type: functional, cell-based
[6] = Luminescence-based counterscreen assay for KLF5 inhibitors: dose response cell-based high throughput screening assay to identify cytotoxic compounds using the IEC-6 intestinal epithelial cell line. [Related pubchem assays: 1700 (Primary screen.), 1834 (Confirmation screen.), 1858 (Summary AID.), 1905 (Counterscreen.)]; type: functional
[7] = A549 cell cytotoxicity, dose response, cytotoxicity control, plate reader, cherry-pick, antagonist series (AID 743412); type: functional, cell-based
[8] = molecular target: Neuropeptide Y receptor type 2 (Homo sapiens, UniProt P49146); test: NPY-Y2 antagonist potency, selectivity check, dose response, counter-screen for NPY-Y1 antagonist project, cell-based (AID 1278); type: functional
Sequence of Neuropeptide Y receptor type 2 (P49146 whole entry): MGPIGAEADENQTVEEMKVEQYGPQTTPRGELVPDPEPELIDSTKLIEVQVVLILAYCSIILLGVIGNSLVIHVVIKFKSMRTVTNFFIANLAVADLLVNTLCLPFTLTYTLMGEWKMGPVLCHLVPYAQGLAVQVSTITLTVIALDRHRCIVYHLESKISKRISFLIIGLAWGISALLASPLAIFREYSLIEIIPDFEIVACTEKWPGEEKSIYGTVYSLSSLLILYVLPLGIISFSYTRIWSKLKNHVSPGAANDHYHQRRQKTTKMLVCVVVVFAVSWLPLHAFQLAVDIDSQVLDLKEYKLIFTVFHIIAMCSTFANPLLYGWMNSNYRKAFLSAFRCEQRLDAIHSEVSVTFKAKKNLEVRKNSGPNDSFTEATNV

[9] = molecular target: Neuropeptide Y receptor type 1 (Homo sapiens, UniProt P25929); test: NPY-Y1 receptor antagonist potency, dose response, cell-based (AID 1277); type: functional
Sequence of Neuropeptide Y receptor type 1 (P25929 whole entry): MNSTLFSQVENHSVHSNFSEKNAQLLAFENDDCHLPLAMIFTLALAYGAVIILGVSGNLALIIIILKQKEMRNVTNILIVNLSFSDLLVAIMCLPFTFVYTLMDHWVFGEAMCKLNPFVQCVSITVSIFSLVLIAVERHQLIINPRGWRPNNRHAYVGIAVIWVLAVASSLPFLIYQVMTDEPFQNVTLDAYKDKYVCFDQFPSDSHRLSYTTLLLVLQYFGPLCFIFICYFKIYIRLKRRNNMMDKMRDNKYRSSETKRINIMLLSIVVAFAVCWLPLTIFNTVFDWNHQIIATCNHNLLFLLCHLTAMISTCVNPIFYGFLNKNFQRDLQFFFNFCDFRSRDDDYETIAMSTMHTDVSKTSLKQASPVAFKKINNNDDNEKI

[10] = CRF-BP/CRF-R2 complex antagonists, dose response, cell-based, uHTS hits, 384-well (AID 651639); type: functional, Homo sapiens; conditions: read-out: IC50_Mean
[11] = molecular target: T2, Corticotropin-releasing factor receptor 2/Corticotropin-releasing factor-binding protein (Homo sapiens, UniProt P24387+Q13324); test: Dose Response confirmation of uHTS hits for small molecule antagonists of the CRF-binding protein and CRF-R2 receptor complex.; type: functional; conditions: read-out: IC50_Mean
T2 sequence (Q13324 whole entry): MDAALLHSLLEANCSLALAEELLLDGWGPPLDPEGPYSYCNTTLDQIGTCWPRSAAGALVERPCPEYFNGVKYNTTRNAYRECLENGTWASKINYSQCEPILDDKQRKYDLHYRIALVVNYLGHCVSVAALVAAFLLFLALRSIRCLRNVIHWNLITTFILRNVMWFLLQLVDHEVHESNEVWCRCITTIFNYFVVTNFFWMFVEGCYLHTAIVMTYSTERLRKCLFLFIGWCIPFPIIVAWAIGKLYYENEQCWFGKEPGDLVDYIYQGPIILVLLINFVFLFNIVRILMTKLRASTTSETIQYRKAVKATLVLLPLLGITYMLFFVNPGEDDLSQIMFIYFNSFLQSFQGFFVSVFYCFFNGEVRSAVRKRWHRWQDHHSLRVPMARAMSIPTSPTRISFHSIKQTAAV
T2 sequence (P24387 whole entry): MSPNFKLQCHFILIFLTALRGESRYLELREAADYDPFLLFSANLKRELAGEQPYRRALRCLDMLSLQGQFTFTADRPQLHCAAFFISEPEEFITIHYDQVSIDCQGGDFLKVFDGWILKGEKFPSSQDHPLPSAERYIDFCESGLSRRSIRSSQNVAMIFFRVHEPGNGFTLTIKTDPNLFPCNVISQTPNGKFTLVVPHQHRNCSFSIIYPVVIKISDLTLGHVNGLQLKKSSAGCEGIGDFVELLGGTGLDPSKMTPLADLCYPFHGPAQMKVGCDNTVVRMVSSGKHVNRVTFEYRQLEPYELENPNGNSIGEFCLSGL

cells [12] = test: cells; remark: listed apart in the source
[13] = HEp-2 cell cytotoxicity, dose response, cytotoxicity control for RSV inhibitor project, HTS (AID 2410); type: functional; conditions: human respiratory syncytial virus
[14] = molecular target: T2, Corticotropin-releasing factor receptor 2/Corticotropin-releasing factor-binding protein; test: activators of CRF receptor 2 with binding protein – uHTS hits, confirmation (AID 602473); type: functional; conditions: read-out: EC50_Mean

O=C(c1cc(-c2ccccc2Cl)on1)N1CCCC1
EC50 [1]: > 67.5 µM (inactive)
EC50 (cells [2]): > 67.5 µM (inactive)
AC50 [3]: 12.1 µM (active)
AC50 [4]: 7.48 µM (active)
AC50 [5]: > 52 µM (inactive)
IC50 [6]: > 39.8 µM (not active)
AC50 [7]: > 52 µM (inactive)

COc1ccccc1N(CC(=O)NC1CCCC1)C(=O)c1oc(C(C)(C)C)cc1C
IC50 [8]: > 35 µM (not active)
IC50 [9]: 30.4 µM (not active)

O=C(O)c1ccc(-c2nc(-c3ccc(Cl)cc3Cl)cs2)cc1
IC50 [10]: > 20 µM (inactive)
IC50 [11]: 3.82 µM (active)
IC50 (cells [12]): 44.2 µM (active)
CC50 [13]: > 50 µM (active)
EC50 [14]: > 53 µM (inactive)
